Results taken from ChEMBL document CHEMBL3885861, “Open TG-GATES”.

Species: Rattus norvegicus
Assay: Open TG-GATES - Regimen: Single
Format: toxicity, organism-based, Sprague-Dawley
Set-up: regimen Single, gender Male, age 6 weeks
Details: in vivo, iv, 300 mg/kg, route intravenous injection, dose level Low; for APTT / Bas / Eos / Fbg / Hb / Ht / Lym / MCH / MCHC / MCV / Mono / PT / Plat / RBC / Ret / WBC: tissue Blood; for KIDNEY_L / KIDNEY_R / KIDNEY_TOTAL: tissue Kidney; for LIVER: tissue Liver; for ALP / ALT / AST / BUN / CRE / Ca / Cl / DBIL / GLC / IP / K / LDH / Na / PL / RALB / TBIL / TC / TG / TP / gamma-GTP: tissue Plasma

CC(=O)OCC1=C(C(=O)O)N2C(=O)[C@@H](NC(=O)Cc3cccs3)[C@H]2SC1 [CEPHALOTHIN] showed a TERMINAL_BW (3 h) of 215.7 g, an APTT (3 h) of 21.9 s and a Bas (3 h) of 0%. The Eos (3 h) was 0.6%, the Fbg (3 h) was 294.6 mg/dL and the Hb (3 h) was 13 g/dL. The Ht (3 h) was 38.4%, the Lym (3 h) was 75.4% and the MCH (3 h) was 21.3 pg. For the same compound, the MCHC (3 h) was 33.8%, the MCV (3 h) was 62.9 fL and the Mono (3 h) was 2.6%. The PT (3 h) was 16.4 s, the Plat (3 h) was 128.8 x10_4/uL and the RBC (3 h) was 611.6 x10_4/ul. The Ret (3 h) was 6.6%, the WBC (3 h) was 98.3 x10_2/uL and the KIDNEY_L (3 h) was 0.9 g. For the same compound, the KIDNEY_R (3 h) was 1 g, the KIDNEY_TOTAL (3 h) was 1.9 g and the LIVER (3 h) was 9.8 g. It also gave an ALP (3 h) of 1407.8 IU/L, an ALT (3 h) of 49.8 IU/L and an AST (3 h) of 87.8 IU/L. It also gave a BUN (3 h) of 12.4 mg/dL, a CRE (3 h) of 0.2 mg/dL and a Ca (3 h) of 10.5 mg/dL. It also gave a Cl (3 h) of 105.8 meq/L, a DBIL (3 h) of 0 mg/dL and a GLC (3 h) of 179 mg/dL. The IP (3 h) was 7.8 mg/dL, the K (3 h) was 4.1 meq/L and the LDH (3 h) was 204.4 IU/L. It also gave a Na (3 h) of 142.4 meq/L, a PL (3 h) of 135.2 mg/dL and an RALB (3 h) of 2.8 g/dL. The TBIL (3 h) was 0.016 mg/dL, the TC (3 h) was 69.2 mg/dL and the TG (3 h) was 92 mg/dL. It also gave a TP (3 h) of 5.2 g/dL, a gamma-GTP (3 h) of 1.4 IU/L and a TERMINAL_BW (6 h) of 208.2 g. It also gave an APTT (6 h) of 22.7 s, a Bas (6 h) of 0% and an Eos (6 h) of 0.8%. It also gave a Fbg (6 h) of 278.6 mg/dL, a Hb (6 h) of 13.4 g/dL and a Ht (6 h) of 38.9%. It also gave a Lym (6 h) of 78%, an MCH (6 h) of 21.3 pg and an MCHC (6 h) of 34.4%. It also gave an MCV (6 h) of 62 fL, a Mono (6 h) of 2.6% and a PT (6 h) of 16 s. For the same compound, the Plat (6 h) was 118.3 x10_4/uL, the RBC (6 h) was 627.2 x10_4/ul and the Ret (6 h) was 5.9%. The WBC (6 h) was 75.8 x10_2/uL, the KIDNEY_L (6 h) was 0.9 g and the KIDNEY_R (6 h) was 0.9 g. For the same compound, the KIDNEY_TOTAL (6 h) was 1.9 g, the LIVER (6 h) was 8.9 g and the ALP (6 h) was 1320.4 IU/L. For the same compound, the ALT (6 h) was 36.8 IU/L, the AST (6 h) was 78.4 IU/L and the BUN (6 h) was 9.6 mg/dL. The CRE (6 h) was 0.2 mg/dL, the Ca (6 h) was 10.3 mg/dL and the Cl (6 h) was 105.6 meq/L. For the same compound, the DBIL (6 h) was 0 mg/dL, the GLC (6 h) was 171.6 mg/dL and the IP (6 h) was 9 mg/dL. For the same compound, the K (6 h) was 4.1 meq/L, the LDH (6 h) was 162.4 IU/L and the Na (6 h) was 141.6 meq/L. For the same compound, the PL (6 h) was 125.4 mg/dL, the RALB (6 h) was 2.9 g/dL and the TBIL (6 h) was 0.022 mg/dL. It also gave a TC (6 h) of 66.4 mg/dL, a TG (6 h) of 75.2 mg/dL and a TP (6 h) of 5.3 g/dL. For the same compound, the gamma-GTP (6 h) was 1 IU/L, the TERMINAL_BW (9 h) was 211.4 g and the APTT (9 h) was 24.2 s. The Bas (9 h) was 0%, the Eos (9 h) was 1% and the Fbg (9 h) was 284 mg/dL. For the same compound, the Hb (9 h) was 13.2 g/dL, the Ht (9 h) was 38.6% and the Lym (9 h) was 81.2%. The MCH (9 h) was 21.3 pg, the MCHC (9 h) was 34.1% and the MCV (9 h) was 62.3 fL. It also gave a Mono (9 h) of 2%, a PT (9 h) of 16.1 s and a Plat (9 h) of 135 x10_4/uL. It also gave an RBC (9 h) of 619.6 x10_4/ul, a Ret (9 h) of 6.4% and a WBC (9 h) of 77.3 x10_2/uL. For the same compound, the KIDNEY_L (9 h) was 1 g, the KIDNEY_R (9 h) was 1 g and the KIDNEY_TOTAL (9 h) was 1.9 g. The LIVER (9 h) was 8.6 g, the ALP (9 h) was 1157.8 IU/L and the ALT (9 h) was 34.2 IU/L. For the same compound, the AST (9 h) was 69 IU/L, the BUN (9 h) was 10 mg/dL and the CRE (9 h) was 0.1 mg/dL. It also gave a Ca (9 h) of 10.4 mg/dL, a Cl (9 h) of 106.2 meq/L and a DBIL (9 h) of 0 mg/dL. It also gave a GLC (9 h) of 180.8 mg/dL, an IP (9 h) of 9.6 mg/dL and a K (9 h) of 4.5 meq/L. The LDH (9 h) was 128.6 IU/L, the Na (9 h) was 141 meq/L and the PL (9 h) was 115.8 mg/dL. For the same compound, the RALB (9 h) was 2.8 g/dL, the TBIL (9 h) was 0.02 mg/dL and the TC (9 h) was 60.6 mg/dL. For the same compound, the TG (9 h) was 71.2 mg/dL, the TP (9 h) was 5.1 g/dL and the gamma-GTP (9 h) was 1.4 IU/L. It also gave a TERMINAL_BW (24 h) of 226.1 g, an APTT (24 h) of 22 s and a Bas (24 h) of 0%. For the same compound, the Eos (24 h) was 0.8%, the Fbg (24 h) was 303.8 mg/dL and the Hb (24 h) was 13.2 g/dL. For the same compound, the Ht (24 h) was 38.9%, the Lym (24 h) was 81% and the MCH (24 h) was 20.6 pg. The MCHC (24 h) was 34%, the MCV (24 h) was 60.4 fL and the Mono (24 h) was 2.2%. For the same compound, the PT (24 h) was 16.7 s, the Plat (24 h) was 120 x10_4/uL and the RBC (24 h) was 645.2 x10_4/ul. It also gave a Ret (24 h) of 6%, a WBC (24 h) of 89.2 x10_2/uL and a KIDNEY_L (24 h) of 1 g. It also gave a KIDNEY_R (24 h) of 1 g, a KIDNEY_TOTAL (24 h) of 2 g and an LIVER (24 h) of 10.2 g. It also gave an ALP (24 h) of 1605.2 IU/L, an ALT (24 h) of 53 IU/L and an AST (24 h) of 77.6 IU/L. It also gave a BUN (24 h) of 17 mg/dL, a CRE (24 h) of 0.2 mg/dL and a Ca (24 h) of 10.6 mg/dL. For the same compound, the Cl (24 h) was 105.8 meq/L, the DBIL (24 h) was 0 mg/dL and the GLC (24 h) was 184.4 mg/dL. The IP (24 h) was 7.2 mg/dL, the K (24 h) was 4.3 meq/L and the LDH (24 h) was 171.6 IU/L. The Na (24 h) was 142.4 meq/L, the PL (24 h) was 135.6 mg/dL and the RALB (24 h) was 2.9 g/dL. The TBIL (24 h) was 0.016 mg/dL, the TC (24 h) was 70.6 mg/dL and the TG (24 h) was 90 mg/dL. For the same compound, the TP (24 h) was 5.4 g/dL and the gamma-GTP (24 h) was 2 IU/L.
